Results on one molecule are retold here after US6951887B2 (The Research Foundation of State University of New York, priority 1998, dated 2005).

Common to all, as to assay type: cell-based
The subject of test [1] is Hep G2. The experiment in a line: killing of cultured cells, Hep G2. Further details: key to cells killed by treatment: “+” indicates that the cells were killed by treatment; “−” indicates that they were not; “+/−” indicates a slow marginal response seen only in a few special cases with fibroblasts experimentally transformed by introduction of the ras oncogene. An excerpt: (§1) Table 1: Summarized are the responses of cells in culture to killing by example members of the family of blocked lipoate derivatives that are the object of this invention as well as one control compound (dihydroxyoctanoic acid). At right is indicated the specific cell line followed by the tissue of origin of the cell line. Across the top are listed the specific compounds tested. Each blocked lipoate derivative was used at two to fourfold above its threshold killing concentration. [These concentrations range form 0.15 mM (60 ug/ml or 60 mg/kg) to 2.5 mM (800 ug/ml or 800 mg/kg) (see EXAMPLE 11).] […] “+/−” indicates a slow marginal response seen only in a few special cases with fibroblasts experimentally transformed by introduction of the ras oncogene (EXAMPLE 10).
(§2) First, each cell type to be tested was plated at low densities in the wells of a standard 6×24 well tissue culture plate. (Multiple wells are seeded for each cell type.)
(§3) Second, the cells were allowed to grow to moderate densities. Transformed cells are in contact and non-transformed cells are contact-inhibited under these conditions.
(§4) Third, the lipoate derivatives to be tested were added to individual wells. In these experiments each compound was added at two to fourfold above the threshold killing concentration for cancer cells (EXAMPLE 11).
(§5) Fourth, cells were monitored over the next several days.

For test [2], the system named is A549 (Lung). The experiment in a line: killing of cultured cells, A549. Further details: key to cells killed by treatment: “+” indicates that the cells were killed by treatment; “−” indicates that they were not; “+/−” indicates a slow marginal response seen only in a few special cases with fibroblasts experimentally transformed by introduction of the ras oncogene.
From the text: as §1, §2, §3, §4, §5

For test [3], the system named is LnCap (Prostate). The experiment in a line: killing of cultured cells, LnCap. To be noted: compound at two to fourfold above its threshold killing concentration. Details: key: “+” indicates that the cells were killed by treatment; “−” indicates that they were not; “+/−” indicates a slow marginal response seen only in a few special cases with fibroblasts experimentally transformed by introduction of the ras oncogene.
From the text: as §1, §2, §3, §4, §5

The test system of test [4] is MCF 7 (Breast). The experiment in a line: killing of cultured cells, MCF 7. To be noted: compound at two to fourfold above its threshold killing concentration. Details: key: “+” indicates that the cells were killed by treatment; “−” indicates that they were not; “+/−” indicates a slow marginal response seen only in a few special cases with fibroblasts experimentally transformed by introduction of the ras oncogene.
From the text: as §1, §2, §3, §4, §5

For test [5], the system named is B16 (Skin). In words: killing of cultured cells, B16. Details: key: “+” indicates that the cells were killed by treatment; “−” indicates that they were not; “+/−” indicates a slow marginal response seen only in a few special cases with fibroblasts experimentally transformed by introduction of the ras oncogene. To be noted: compound at two to fourfold above its threshold killing concentration.
From the text: as §1, §2, §3, §4, §5

Test [6] deals with Saos 2 (Bone). In words: killing of cultured cells, Saos 2. Details: key: “+” indicates that the cells were killed by treatment; “−” indicates that they were not; “+/−” indicates a slow marginal response seen only in a few special cases with fibroblasts experimentally transformed by introduction of the ras oncogene. To be noted: compound at two to fourfold above its threshold killing concentration.
From the text: as §1, §2, §3, §4, §5

In test [7] the test system is NIH 3T3 parental. In words: killing of cultured cells, parental NIH 3T3. The note with it: 120 ug/ml, ca. 24 hours of treatment.
From the text: as §1, §2
Second, the cells were allowed to grow to moderate densities. Transformed cells are in contact and non-transformed cells are contact-inhibited under these conditions. […]
as §5
NIH-3T3 cells are relatively normal, noncancerous cells. However, if an activated allele of the ras oncogene is introduced into these cells they become highly malignant (cancerous) as assessed by several assays (REFERENCE).

Test [8] deals with cancer cells in culture. In words: threshold killing concentration and dose response in cultured cells. An excerpt: First, each compound killed cancer cells in culture at or above a relatively narrow, specific concentration range, but not below. The threshold concentrations given below represent the approximate center of this range which extended roughly two to threefold. […] Below these saturation ranges, sensitive cells survived and grew. They could be removed and replated to grow, apparently indefinitely, under these conditions. […] This was a highly unusual dose/response profile. The threshold killing concentrations (ranges) varied between individual compounds. Examples of these threshold killing concentrations were as follows: bis-benzoyl lipoate (EXAMPLE 3) 60 mg/liter (60 mg/kg), monoacetyl lipoate (EXAMPLE 4) 100 mg/liter (100 mg/kg); bis-acetyl lipoate (EXAMPLE 2) 600 mg/liter (600 mg/kg).
These changes were ultimately followed by cell death if treatment was continued. However, these morphological changes were reversed, and the cells recovered, if the lipoate derivative was removed during this initial exposure. As with the dose/response profile of the preceeding paragraph, this reversible induction of morphological change followed by commitment to cell death is highly idiosyncratic. The discovery that this behavior was shown by all tested members of the class of compounds that are the object of this invention was, again, very strong evidence that these compounds are, in fact, a functionally coherent class.

The test system of test [9] is HeLa (cervical cancer) cells. The experiment in a line: TUNEL assay for apoptosis. The note with it: ca. 20-24 hours, ca. twofold above threshold killing concentration. An excerpt:
In order to understand the experiment described in this Example is necessary to review details concerning the specific assay used in the experiments. Nuclear DNA of cells is normally present in the very long molecules making up chromosomes. These very long polymer molecules have only extremely rare free ends. In contrast, after the induction of apoptosis the cell begins to destroy itself and, in the process, introduces an extremely large number of breaks in its DNA in the process of reducing it to its small monomer constituents. The appropriate enzyme —terminal transferase—will add nucleotides to the free ends of DNA molecules. Moreover, this enzyme will use monomers (nucleotides) for this addition reaction that have highly fluorescent groups added to them. Thus, if the nuclei of normal cells—with few free DNA ends—are exposed to terminal transferase and fluorescent monomers very little fluorescence is added to these nuclei. In contrast, when these components are added to the nuclei of cells undergoing apoptosis and very large number of fluorescent monomers are added—to the very many DNA ends that are present—resulting in a massive introduction of fluorescence. The conventional assay based on these properties is referred by the acronym TUNEL. […] HeLa cancerous cells were plated in several wells in a tissue culture dish. […]

Test [10] concerns HeLa cells. The experiment in a line: killing of HeLa cells with or without dichloroacetate (DCA). The note with it: compound ca. twofold above threshold killing dose plus 5 mM DCA. The method, then: HeLa cells were plated at moderate densities and allowed to attach and grow for ca. 24 hours in a series of wells in a multi-well tissue culture plate. To individual wells of the first subset (control) were added bis-acetyl lipoate, mono-acetyl lipoate or bis-benzoyl lipoate—each at ca. twofold above the threshold killing dose (EXAMPLE 11). To an equivalent (experimental) subset of wells were added these same compounds at the same dose together with the simultaneous addition of DCA to 5 mM final concentration.

As to `O=C(O)CCCCC(CCSC(=O)c1ccccc1)SC(=O)c1ccccc1` (stereo not shown) [bis-benzoyl lipoate, 6,8-bisbenzoylmercaptooctanoic acid], the “cell killing, liver cancer cells (FIG. 1)” value in test [1] (120 ug/ml, ca. 48 hours) is on record as “efficiently killed”. Further, the “cells killed by treatment” value is listed as “+” in test [1] (Hep G2, compound at two to fourfold above its threshold killing concentration); “+” in test [2] (A549, Lung, compound at two to fourfold above its threshold killing concentration); “+” in test [3]; “+” in test [4]; “+” in test [5]; “+” in test [6]. In test [2] (120 ug/ml, ca. 48 hours), the “cell killing, lung cancer cells (FIG. 1)” value was “efficiently killed”. Further, the “effect on noncancerous parental NIH3T3 cells (FIG. 2)” value in test [7] was “unaffected”. Besides, the “effective dose in cell culture” value in [8] turned out to be 60 µg/mL. For the same molecule, in test [8] (approximate center of a range extending two to threefold), the threshold killing concentration was found to be 60 mg/L. Moreover, the “induction of apoptosis (TUNEL)” value in test [9] is “induces apoptosis”. For the same molecule, the “speed of cell killing with DCA relative to compound alone” value in test [10] is on record as “approximately twvice as rapidly”.
